Among the data in ChEMBL document CHEMBL2331303, “N-(Phenoxyalkyl)amides as MT(1) and MT(2) ligands: antioxidant properties and inhibition of Ca(2+)/CaM-dependent kinase II” (Bioorg Med Chem, 2013) are inhibition, IC50 and Activity values, retold here.

Calls of active or inactive are those of the source. The calls are words filed in the database; no cut-off is given here.

Test [1] has as its system Radical scavenging activity. Nature of the test: Antioxidant activity assessed as DPPH radical scavenging activity at 0.1 mM. The class given is functional. Background: DPPH is a stable violet radical that fades when it is reduced.
Test [2] has as its system HepG2. Nature of the test: Antioxidant activity in human HepG2 cells assessed as reduction in H2O2-induced oxidation by DCFH-DA assay. It is filed as functional, cell-based.
Test [3] in a line: Inhibition of active recombinant full-length CaMK2 (unknown origin) using Autocamtide substrate and [gamma32P]ATP after 30 mins by scintillation counting method. Also on record: species or system Homo sapiens.
Test [4] relates to Radical scavenging activity. As to the kind of experiment: Antioxidant activity assessed as DPPH radical scavenging activity at 5.5 mM. The class given is functional.
Test [5] has as its system Radical scavenging activity. Nature of the test: Antioxidant activity assessed as DPPH radical scavenging activity at 1 mM. It is filed as functional.
The test system of test [6] is HepG2. Nature of the test: Cytoprotective activity in human HepG2 cells assessed as reduction in H2O2-induced cell death at 10 to 100 ug/mL incubated for 2 hrs by MTT assay. The class given is functional, cell-based.
Test [7] deals with HepG2. As to the kind of experiment: Cytoprotective activity in human HepG2 cells assessed as reduction in H2O2-induced cell death at 100 ug/mL incubated for 2 hrs by MTT assay. Also on record: scale not given: the % may be the effect or the level left. It is filed as functional. (Tetrazolium assays rely on reduction of a dye to a coloured formazan, in cell work by metabolically active cells.)

The subject of test [8] is Radical scavenging activity. Nature of the test: Antioxidant activity assessed as DPPH radical scavenging activity. The class given is functional. The settings on record: dose or concentration not given here.

For `COc1ccc2[nH]cc(CCNC(C)=O)c2c1` [MELATONIN], the inhibition (commonly the percentage by which the read-out fell short of the control) worked out at 2.1% in test [1], 31.8% in test [4] and 7.8% in test [5]. Further, the 50% inhibitory concentration (IC50) – broadly, the concentration needed to halve the response being measured – in the test on HepG2 [2] was 271 µM; in test [3], 128 µM.
Consider `CCCC(=O)NCC(C)Oc1cccc(OC)c1` (racemic), for which the inhibition was 3.22% in test [1], 11.7% in test [4] and 4.05% in test [5]. The results for the IC50 (with HepG2 [2]; in test [3]) were 226 µM and 122 µM, respectively. Further, the result with HepG2 [6] was Active.
For the molecule `CCCC(=O)NC[C@@H](C)Oc1cccc(OC)c1`, the inhibition was determined as 5.6% in test [1], 20.7% in test [4] and 5.1% in test [5]. The 50% inhibitory concentration (IC50) in the test on HepG2 [2] turned out to be 183 µM; in test [3] it was 129 µM. Also, the result in the test on HepG2 [6] was Active. Besides, in the test on HepG2 [7], the Activity was 100%.
Take `COc1cccc(OC(C)CNC(C)=O)c1` (racemic): the IC50 with HepG2 [2] was over 1000 µM.
In the case of `CCCC(=O)NC[C@H](C)Oc1cccc(OC)c1`, the inhibition in test [1] is 2.8%; in test [4], 15.1%; in test [5], 1.3%. The half-maximal inhibitory concentration (IC50) in the test on HepG2 [2] is over 1000 µM; in test [3], 77 µM.
Turning to `CC(=O)NCC(C)Oc1ccccc1` (racemic), the IC50 in the test with HepG2 [2] was over 1000 µM.
Still for that read-out and setting: next, `CC(=O)NCCOc1ccccc1`: over 1000 µM; `CC(=O)NC(C)COc1ccccc1` (racemic): over 1000 µM.
Turning to `O=C(O)c1cc(O)c(O)c(O)c1`, the inhibition in test [1] is 97.1%; in test [8], 6%.
As to `COc1cccc(OC(C)CNC(=O)C2CC2)c1` (racemic), the half-inhibitory concentration (IC50) in the test on HepG2 [2] is over 1000 µM; in test [3], 107 µM.
Turning to `COc1cccc(O[C@H](C)CNC(=O)C2CC2)c1`, the concentration for half-maximal inhibition (IC50) in test [3] stood at 129 µM.
In the case of `COc1cccc(O[C@@H](C)CNC(=O)C2CC2)c1`, the IC50 in test [3] was found to be 117 µM.
